Measurements as given in patent US7323570B2, “Farnesyltransferase inhibitors” (Abbott Laboratories, priority 2000, dated 2008).

Biological target: T1, farnesyltransferase (Rattus norvegicus, UniProt Q02293+Q04631)
T1 construct: The enzyme can be purified according to Cell, 62: 81-88 (1990), utilizing steps one, two, and three; from tissue; host or cells: rat brain
Test: Inhibition of farnesyltransferase (3H-farnesyldiphosphate / H-Ras filter assay)
Format: biochemical
Details: 37° C., 30 minutes; for inhibition at 0.1 µM: test compound 10^−7M
From the text: The ability of the compounds of the present invention to inhibit farnesyltransferase can be measured according to the method described in J. Biol. Chem., 266: 14603 (1991) or J. Biol. Chem., 270:660-664 (1995). Procedures for determination of the inhibition of farnesylation of the oncogene protein Ras are described in J. Biol. Chem., 266:15575-15578 (1991) and U.S. Pat. No. 5,245,061. Inhibition of rat brain farnesyltransferase can also be measured in vitro using an Amersham Life Science commercial scintillation proximity assay kit and substituting a biotin-K Ras B fragment (0.1 μM final concentration) for the biotin-lamin substrate provided by Amersham. The enzyme can be purified according to Cell, 62: 81-88 (1990), utilizing steps one, two, and three. […] The percent inhibition of the farnesylation caused by the compounds of the present invention (at 10^−6 M) compared to an uninhibited control sample can be evaluated in the same Amersham test system.
The mixture was brought to 37° C., treated with enzyme, incubated for 30 minutes, treated with 1 M HCl/ethanol (1 mL) to stop the reaction, stirred for 15 minutes at room temperature, diluted with ethanol (2 mL), filtered through a 2.5 cm glass microfiber filter (Whatman) with ethanol rinses (4×2 mL). The glass filter was transferred to a scintillation vial and treated with scintillation fluid (5 mL). The radioisotope retained on the glass fiber filter was counted and reflected the activity of the enzyme.

T1 sequence (Q02293 whole entry, one chain of several): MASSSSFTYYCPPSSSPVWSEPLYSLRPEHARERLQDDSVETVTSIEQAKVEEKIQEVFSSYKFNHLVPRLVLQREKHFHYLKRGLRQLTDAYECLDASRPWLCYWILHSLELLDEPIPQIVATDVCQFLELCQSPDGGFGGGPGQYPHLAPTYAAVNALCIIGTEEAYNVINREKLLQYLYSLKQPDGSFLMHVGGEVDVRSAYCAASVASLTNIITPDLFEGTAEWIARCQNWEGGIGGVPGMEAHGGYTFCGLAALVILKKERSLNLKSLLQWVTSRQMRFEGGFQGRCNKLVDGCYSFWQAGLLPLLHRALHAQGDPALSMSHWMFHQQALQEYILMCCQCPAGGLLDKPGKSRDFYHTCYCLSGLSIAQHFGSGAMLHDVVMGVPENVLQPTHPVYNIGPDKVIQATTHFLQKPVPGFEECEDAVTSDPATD

| Structure (SMILES) | inhibition at 0.1 µM [%] | inhibition at 0.01 µM (test compound 10^−8M) [%] |
| --- | --- | --- |
| Cn1cncc1C(OCc1ccc(Cl)cc1-c1ccccc1)c1ccc(C#N)cc1 (stereo not drawn) [Example 2, 4-(((5-chloro(1,1′-biphenyl)-2-yl)methoxy)(1-methyl-1H-imidazol-5-yl)methyl)benzonitrile] | > 66 |  |
| Cn1cncc1C(OCc1c(-c2cccc(Cl)c2)cc(C#N)c(=O)n1C)c1ccc(Cl)cc1 (stereo not drawn) [Example 43, 5-(3-chlorophenyl)-6-(((4-chlorophenyl)(1-methyl-1H-imidazol-5-yl)methoxy)methyl)-1-methyl-2-oxo-1,2-dihydro-3-pyridinecarbonitrile] | > 81 |  |
| COc1cccc(-c2cc(C#N)ccc2OCC(F)(c2ccc(C#N)cc2)c2cncn2C)c1 (stereo not drawn) [Example 58, 6-(2-(4-cyanophenyl)-2-fluoro-2-(1-methyl-1H-imidazol-5-yl)ethoxy)-3′-methoxy-1,1′-biphenyl-3-carbonitrile] |  | 96 |
